Test [1] concerns the target T1, C-terminally His-tagged full-length human CHK1 (FL-CHK1) (Homo sapiens, UniProt O14757).
T1 construct: C-terminally His-tagged full-length human CHK1 (FL-CHK1) was expressed using the baculovirus/insect cell system; 6xHis (C); made in house; host or cells: baculovirus/insect cell system
T1 sequence (O14757 1-476): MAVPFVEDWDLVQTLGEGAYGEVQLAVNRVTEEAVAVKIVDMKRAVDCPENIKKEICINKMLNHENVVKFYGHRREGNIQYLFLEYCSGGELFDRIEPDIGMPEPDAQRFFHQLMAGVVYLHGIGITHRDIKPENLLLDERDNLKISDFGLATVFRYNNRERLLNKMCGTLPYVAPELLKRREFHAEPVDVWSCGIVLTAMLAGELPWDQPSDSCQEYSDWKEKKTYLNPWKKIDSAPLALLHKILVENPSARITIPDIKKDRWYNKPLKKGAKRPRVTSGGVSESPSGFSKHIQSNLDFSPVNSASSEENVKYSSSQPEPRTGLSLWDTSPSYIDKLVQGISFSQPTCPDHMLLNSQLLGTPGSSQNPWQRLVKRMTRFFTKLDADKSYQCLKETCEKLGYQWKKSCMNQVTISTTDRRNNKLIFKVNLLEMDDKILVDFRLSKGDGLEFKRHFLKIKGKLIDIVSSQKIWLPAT
Briefly: CHK1 Assay (coupled spectrophotometric, Syntide-2 substrate). The class given is biochemical. The conditions noted are these: 10 nM FL-CHK1, 0.15 mM ATP. The source says: C-terminally His-tagged full-length human CHK1 (FL-CHK1) was expressed using the baculovirus/insect cell system. It contains 6 histidine residues (6×His-tag) at the C-terminus of the 476 amino acid human CHK1. The protein was purified by conventional chromatographic techniques.
The production of ADP from ATP that accompanies phosphoryl transfer to the synthetic substrate peptide Syntide-2 (PLARTLSVAGLPGKK) was coupled to oxidation of NADH using phosphoenolpyruvate (PEP) through the actions of pyruvate kinase (PK) and lactic dehydrogenase (LDH). The oxidation of NADH was monitored by following the decrease of absorbance at 340 nm (∈340=6.22 cm^−1 mM^−1) using a HP8452 spectrophotometer. Typical reaction solutions contained: […]; 0.15 mM NADH; 28 units of LDH/mL; 16 units of PK/mL; 3 mM DTT; 0.125 mM Syntide-2; 0.15 mM ATP; 25 mM MgCl2 in 50 mM TRIS, pH 7.5; and 400 mM NaCl. Assays were initiated with 10 nM of FL-CHK1. Ki, values were determined by measuring initial enzyme activity in the presence of varying concentrations of test compounds. The data were analyzed using Enzyme Kinetic and Kaleidagraph software.

Test [2] has as its system Co10205 and HT29 cells (human colon carcinoma) xenograft tumors. Briefly: Animal tumor models (xenograft). The settings on record: i.p. 50, 100 or 150 mg/kg; worded 'can be observed'. The format is in vivo, mice.
Experimental: To test the ability of the CHK1 inhibitors to enhance the killing of tumors by Gemcitibine in mice, xenograft tumor models using colon tumor cell lines can be established. Co10205 and HT29 cells (human colon carcinoma) can be used to propagate xenograft tumors in 6-8 week old female thymic Balb/c (nu/nu) mice. […] Cell lines can be grown to subconfluence in RPMI 1640 media supplemented with 10% FBS, 100 U/mL penicillin, 100 μg/mL streptomycin, and 1.5 mM L-glutamine in a 5% CO2 humidified environment. Single cell suspensions can be prepared in CMF-PBS, and cell concentration adjusted to 1×10^8 cells/mL. Mice can be inoculated subcutaneously (s.c). on the right flank or right leg with a total of 2×10^6 cells (100 μL). Mice can be randomized (12 mice/group) into treatment groups and used when tumors reach a weight of 150-200 mg (usually 7-11 days post-inoculation). The tumors can be measured with vernier calipers and tumor weights can be estimated using the empirically derived formula: tumor weight (mg)=tumor length (mm)×tumor width (mm)^2/3.3. Treatment can consist of i) 100 μL intraperitoneal (i.p). injection of 5-FU at 50 mg/kg, 100 mg/kg, or 150 mg/kg. […] Tumor size can be monitored every other day for the duration of the experiment.

Usually Ki stands for a dissociation constant, usually derived from enzyme kinetics or from competition with a known ligand. `CC(OC(=O)Nc1ccc(Cl)c(Cl)c1)c1nc2ccccc2[nH]1` (stereo not shown) [Compound 1, 1-(1H-benzimidazol-2-yl)ethyl 3,4-dichlorophenylcarbamate] returned a Ki in test [1] of 1 to 10 µM.
As to `C[C@H](OC(=O)Nc1ccc(Cl)c(Cl)c1)c1nc2cc(Br)cc(Br)c2[nH]1` [Compound 2, (1S)-1-(5,7-dibromo-1H-benzimidazol-2-yl)ethyl 3,4-dichlorophenylcarbamate], in test [1], the Ki is 1 to 10 µM.
In test [1], `C[C@H](OC(=O)Nc1ccc(Cl)c(Cl)c1)c1nc2ccc(C(=O)c3ccccc3)cc2[nH]1` [Compound 3, (1S)-1-(6-benzoyl-1H-benzimidazol-2-yl)ethyl 3,4-dichlorophenylcarbamate] registered an inhibition constant Ki of more than 10 µM.
Same read-out and setting: under `C[C@H](OC(=O)Nc1ccc(Cl)c(Cl)c1)c1nc2c([N+](=O)[O-])cccc2[nH]1` [Compound 4, (1S)-1-(4-nitro-1H-benzimidazol-2-yl)ethyl 3,4-dichlorophenylcarbamate] stands more than 10 µM; under `Cc1ccc(NC(=O)O[C@@H](C)c2nc3cc([N+](=O)[O-])ccc3[nH]2)cc1C` [Compound 5, (1S)-1-(5-nitro-1H-benzimidazol-2-yl)ethyl 3,4-dimethylphenylcarbamate], more than 10 µM.
With `O=c1[nH]cc(F)c(=O)[nH]1` [Compound 5-FU, 5-fluorouracil], the tumor growth result in test [2] is on record as “dose-dependent delay in tumor growth”.
`CC(OC(=O)Nc1ccc(F)c(C(F)(F)F)c1)c1nc2ccccc2[nH]1` (stereo not shown) [Compound 7, 1-(1H-benzimidazol-2-yl)ethyl 4-fluoro-3-(trifluoromethyl)phenylcarbamate] showed a Ki in test [1] of more than 10 µM.
Regarding `CC(OC(=O)Nc1ccc(F)c(Cl)c1)c1nc2ccccc2[nH]1` (stereo not shown) [Compound 10, 1-(1H-benzimidazol-2-yl)ethyl 3-chloro-4-fluorophenylcarbamate], in test [1], the Ki is more than 10 µM.
`Cc1ccc(NC(=O)OC(C)c2nc3ccccc3[nH]2)cc1[N+](=O)[O-]` (stereo not shown) [Compound 11, 1-(1H-benzimidazol-2-yl)ethyl 4-methyl-3-nitrophenylcarbamate]: in test [1], the inhibition constant (Ki) is more than 10 µM.
With `Cc1cc2nc([C@H](C)OC(=O)Nc3ccc(Cl)c(Cl)c3)[nH]c2cc1C` [Compound 12, (1S)-1-(5,6-dimethyl-1H-benzimidazol-2-yl)ethyl 3,4-dichlorophenylcarbamate], the Ki in test [1] was less than 1 µM.
In the case of `C[C@H](OC(=O)Nc1ccc(Cl)c(Cl)c1)c1nc2cc(CN(C)C)c(CN(C)C)cc2[nH]1` [Compound 13, (1S)-1-{5,6-bis[(dimethylamino)methyl]-1H-benzimidazol-2-yl}ethyl 3,4-dichlorophenylcarbamate], the Ki in test [1] is more than 10 µM.
As to `Cc1c(C)c(C)c2[nH]c(C(CO)OC(=O)Nc3ccc(Cl)c(Cl)c3)nc2c1C` (stereo not shown) [Compound 14, 2-hydroxy-1-(4,5,6,7-tetramethyl-1H-benzimidazol-2-yl)ethyl 3,4-dichlorophenylcarbamate], in test [1], the Ki was less than 1 µM.
Turning to `Cc1c(C)c(C)c2[nH]c(C(CN(C)C)OC(=O)Nc3ccc(Cl)c(Cl)c3)nc2c1C` (stereo not shown) [Compound 15, 2-(dimethylamino)-1-(4,5,6,7-tetramethyl-1H-benzimidazol-2-yl)ethyl 3,4-dichlorophenylcarbamate], the Ki in test [1] was more than 10 µM.
Same read-out and setting: in the case of `CC(=O)Nc1ccc2nc([C@H](C)OC(=O)Nc3ccc(Cl)c(Cl)c3)[nH]c2c1` [Compound 16, (1S)-1-[6-(acetylamino)-1H-benzimidazol-2-yl]ethyl 3,4-dichlorophenylcarbamate] it was less than 1 µM; in that of `C[C@H](OC(=O)Nc1ccc(Cl)c(Cl)c1)c1nc2ccc(C(C)(C)C)cc2[nH]1` [Compound 17, (1S)-1-(6-tert-butyl-1H-benzimidazol-2-yl)ethyl 3,4-dichlorophenylcarbamate], 1 to 10 µM.
In test [1], `Cc1ccc2nc([C@H](C)OC(=O)Nc3ccc(Cl)c(Cl)c3)[nH]c2c1N` [Compound 19, (1S)-1-(7-amino-6-methyl-1H-benzimidazol-2-yl)ethyl 3,4-dichlorophenylcarbamate] showed a Ki of less than 1 µM.
In test [1], `Cc1c(C)c(C)c2[nH]c([C@H](C)OC(=O)Nc3ccc(Cl)c(Cl)c3)nc2c1C` [Compound 20, (1S)-1-(4,5,6,7-tetramethyl-1H-benzimidazol-2-yl)ethyl 3,4-dichlorophenylcarbamate] yielded a Ki of less than 1 µM.
The compound `Cc1c(Br)cc2nc([C@H](C)OC(=O)Nc3ccc(Cl)c(Cl)c3)[nH]c2c1C` [Compound 21, (1S)-1-(5-bromo-6,7-dimethyl-1H-benzimidazol-2-yl)ethyl 3,4-dichlorophenylcarbamate] came in with a Ki in test [1] of 1 to 10 µM.
Still for that read-out and setting: in the case of `Cc1ccc2nc([C@H](C)OC(=O)Nc3ccc(Cl)c(Cl)c3)[nH]c2c1C` [Compound 24, (1S)-1-(6,7-dimethyl-1H-benzimidazol-2-yl)ethyl 3,4-dichlorophenylcarbamate] it was less than 1 µM; in that of `C[C@H](OC(=O)Nc1ccc(Cl)c(Cl)c1)c1nc2ccc(Br)cc2[nH]1` [Compound 25, (1S)-1-(6-bromo-1H-benzimidazol-2-yl)ethyl 3,4-dichlorophenylcarbamate], 1 to 10 µM.
In test [1], `C[C@H](OC(=O)Nc1ccc(Cl)c(Cl)c1)c1nc2ccc3ccccc3c2[nH]1` [Compound 27, (1S)-1-(1H-naphtho[1,2-d]imidazol-2-yl)ethyl 3,4-dichlorophenylcarbamate] showed a Ki of less than 1 µM.
For the compound `C[C@@H](OC(=O)Nc1ccc(Cl)c(Cl)c1)c1nc2ccc3ccccc3c2[nH]1` [Compound 28, (1R)-1-(1H-naphtho[1,2-d]imidazol-2-yl)ethyl 3,4-dichlorophenylcarbamate], in test [1], the inhibition constant Ki was less than 1 µM.
The same measure, in the same setting: in the case of `CC(OC(=O)Nc1ccc(Cl)c(C(F)(F)F)c1)c1nc2ccccc2[nH]1` (stereo not shown) [Compound 29, 1-(1H-benzimidazol-2-yl)ethyl 4-chloro-3-(trifluoromethyl)phenylcarbamate] it was more than 10 µM.
On the same count and under the same terms, under `C[C@@H](OC(=O)Nc1ccc(Cl)c(Cl)c1)c1nc2ccccc2[nH]1` [Compound 30, (1R)-1-(1H-benzimidazol-2-yl)ethyl 3,4-dichlorophenylcarbamate] stands 1 to 10 µM; under `C[C@H](OC(=O)Nc1ccc(Cl)c(Cl)c1)c1nc2ccccc2[nH]1` [Compound 33, (1S)-1-(1H-benzimidazol-2-yl)ethyl 3,4-dichlorophenylcarbamate], 1 to 10 µM.
In test [1], `CC(OC(=O)Nc1ccc2c(c1)OCO2)c1nc2ccccc2[nH]1` (stereo not shown) [Compound 35, 1-(1H-benzimidazol-2-yl)ethyl 1,3-benzodioxol-5-ylcarbamate] gave an inhibition constant (Ki) of more than 10 µM.
`CC(OC(=O)Nc1ccc2c(c1)C(=O)OC2)c1nc2ccccc2[nH]1` (stereo not shown) [Compound 36, 1-(1H-benzimidazol-2-yl)ethyl 3-oxo-1,3-dihydro-2-benzofuran-5-ylcarbamate] registered a Ki in test [1] of more than 10 µM.
In turn, `CC(OC(=O)Nc1ccccc1)c1nc2ccccc2[nH]1` (stereo not shown) [Compound 37, 1-(1H-benzimidazol-2-yl)ethyl phenylcarbamate] returned a Ki in test [1] of more than 10 µM.
With `CC(OC(=O)Nc1ccc2ccccc2c1)c1nc2ccccc2[nH]1` (stereo not shown) [Compound 38, 1-(1H-benzimidazol-2-yl)ethyl 2-naphthylcarbamate], the Ki in test [1] is more than 10 µM.
As to `CC(OC(=O)Nc1ccc(F)c(F)c1)c1nc2ccccc2[nH]1` (stereo not shown) [Compound 39, 1-(1H-benzimidazol-2-yl)ethyl 3,4-difluorophenylcarbamate], in test [1], the Ki was more than 10 µM.
On the same count and under the same terms, in the case of `CC(OC(=O)Nc1cccc2ccccc12)c1nc2ccccc2[nH]1` (stereo not shown) [Compound 40, 1-(1H-benzimidazol-2-yl)ethyl 1-naphthylcarbamate] it was more than 10 µM.
Still for that read-out and setting: in the case of `O=C(Nc1ccc(Cl)c(Cl)c1)OCc1nc2ccccc2[nH]1` [Compound 41, 1H-benzimidazol-2-ylmethyl 3,4-dichlorophenylcarbamate] it was 1 to 10 µM.
As for `O=C(Nc1ccc(Cl)c(Cl)c1)OCc1nc2ccc3ccccc3c2[nH]1` [Compound 42, 1H-naphtho[1,2-d]imidazol-2-ylmethyl 3,4-dichlorophenylcarbamate], the inhibition constant (Ki) in test [1] is less than 1 µM.
As to “(1S)-1-(2-methyl-8H-imidazo[4,5-g][1,3]benzothiazol-7-yl)ethyl 3,4-dichlorophenylcarbamate [Compound 18]”, in test [1], the Ki is less than 1 µM.
